Data published in the NIST ThermoML archive (doi:10.1016/j.jct.2015.08.010).
± gives the expanded uncertainty stated by the source.

What was measured:
[1] = 100 kPa, Liquid; for viscosity: Falling or rolling sphere viscometry; for mass density: Vibrating tube method
[2] = xn = mol fraction of the nth substance listed; conditions: 100 kPa, Liquid, Falling or rolling sphere viscometry, x2 = 0

Compound	viscosity ([1]; 293.15 K)	mass density ([1]; 293.15 K)	viscosity ([1]; 298.15 K)	mass density ([1]; 298.15 K)	viscosity ([1]; 303.15 K)	mass density ([1]; 303.15 K)	viscosity ([1]; 308.15 K)	mass density ([1]; 308.15 K)	viscosity ([1]; 313.15 K)	mass density ([1]; 313.15 K)	viscosity ([2]; 293.15 K)	viscosity ([2]; 298.15 K)	viscosity ([2]; 303.15 K)	viscosity ([2]; 308.15 K)	viscosity ([2]; 313.15 K)
C1CCC2=NCCC[NH+]2CC1.c1c[n-]cn1 [1,8-diazabicyclo[5.4.0]undec-7-enium imidazolide]	47.82 ± 1.2 mPa·s	1053.63 ± 4.3 kg/m3	34.94 ± 0.85 mPa·s	1049.78 ± 4.3 kg/m3	26.36 ± 0.64 mPa·s	1045.94 ± 4.3 kg/m3	20.5 ± 0.49 mPa·s	1042.11 ± 4.2 kg/m3	16.28 ± 0.39 mPa·s	1038.28 ± 4.2 kg/m3					
O [water]	1.002 ± 0.021 mPa·s		0.89 ± 0.02 mPa·s		0.797 ± 0.017 mPa·s		0.718 ± 0.015 mPa·s		0.651 ± 0.014 mPa·s						
O [water] + C1CCC2=NCCC[NH+]2CC1.c1c[n-]cn1											1.002 ± 0.021 mPa·s	0.89 ± 0.02 mPa·s	0.797 ± 0.017 mPa·s	0.718 ± 0.015 mPa·s	0.651 ± 0.014 mPa·s
